According to PubChem BioAssay (NCI):
Where “and” joins values, the source holds several entries; their conditions need not be identical. Equal entries are not always repeated.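 Results reflect a 48-hour exposure of cells in 96-well plates to compound at five concentrations. GI50 is the concentration that inhibits growth by half. TGI denotes the concentration required for complete inhibition of growth.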

Test system: HS 578T breast
Assay: growth of human tumour cells (NCI), 48 h

| SMILES | GI50 [µM] | TGI [µM] |
| --- | --- | --- |
| COc1cccc(-c2cc(-c3cccc(NS(C)(=O)=O)c3)nc(N)c2C#N)c1O | 0.0901 | 4.42 |
| CCN1CCN(Cc2ccc(NC(=O)c3cccc(C#Cc4cccc5[nH]nc(N)c45)c3)cc2C(F)(F)F)CC1 | 0.518 | 3.19 |
| Cc1ccsc1C(=S)Nc1ccc(Cl)c(/C=N/OC(C)(C)C)c1 | – | > 100 |
| CC(C)=CCC\C(C)=C/C=C/C(C)=C\C=C\C(C)=C/C=C/C=C(C)\C=C\C=C(C)/C=C/C=C(/C)CCC=C(C)C | – | > 100 |
| NC(N)=NS(=O)(=O)c1ccc(Nc2c3ccccc3nc3c(C(=O)NCCO)cccc23)cc1 | 21.3 | – |
| COc1cccc(C2c3cc4c(cc3OC(C)(N3CCCC3)C2C)OCO4)c1O (stereo not given) | – | 5.59 |
| COC(=O)CC[N+]1=CCC(c2ccccc2)(c2ccccc2)O1 | – | > 100 |
| CCN(CC)N=Nc1c(C(N)=O)n[nH]c1C | – | > 100 |
| O=C1NC(=NCCc2cccc(F)c2)S/C1=C\c1ccc2ncccc2c1 | 10.6 | > 25 |
| COc1cc(/C=N\NC(=O)CN2CCN(c3cc4c(cc3F)c(=O)c(C(=O)N/N=C/c3cc(OC)c(OC)c(OC)c3)cn4C3CC3)CC2)cc(OC)c1OC | 0.308 | – |
| OCCN(CCO)c1ncnc2c1ncn2Cc1ccc(CCl)cc1 | 16 | 36.9 |
| Cc1ccc2c(C)c3c(ccc4ccccc43)c[n+]2c1 | 4.37 | 22.3 |
| Cc1ccc(CN2CCC(C(=O)Nc3ccc(-c4cc5ccccc5[nH]4)cc3)CC2)o1 | 26.3 | > 100 |
| C=CC(=O)Nc1cc(Nc2ncc(C(=O)OC(C)C)c(-c3cn(C)c4ccccc34)n2)c(OC)cc1N(C)CCN(C)C | 6.43 | 21.5 |
| O=C(Nc1ccc(F)cc1)Nc1ccc(Cl)c([N+](=O)[O-])c1 | 4.02 | 24.2 |
| CCOC(=O)Cn1c(C(F)(F)F)nc2nc(Cl)c(Cl)nc21 | – | 87.2 |
| CC1CCc2nc[nH]c(=O)c21 (stereo not given) | > 100 | > 100 |
| Fc1[nH]nc2ccc([C@@H]3Nc4ccc5[nH]ncc5c4[C@H]4C5CCC(C5)[C@@H]34)cc12 (stereo not given in full) | 1.4 | 13.6 |
| COC1/C=C/OC2(C)Oc3c(C)c(O)c4c(O)c(c(/C=N/Nc5ccc([N+](=O)[O-])cc5[N+](=O)[O-])c(O)c4c3C2=O)NC(=O)C(C)=C/C=C/C(C)C(O)C(C)C(O)C(C)C(OC(C)=O)C1C (stereo not given) | 0.97 | 3.59 |

Test system: MDA-MB-231 breast
Assay: growth of human tumour cells (NCI), 48 h

| SMILES | GI50 [µM] | TGI |
| --- | --- | --- |
| CN(C)c1ccc(/C=C\C2=[N+](C)c3ccccc3C2(C)C)cc1 | 2.12 | 18.8 µM |
| COc1cc2c(c3oc4c(O)cccc4c(=O)c13)CC(C(C)(O)CO)O2 (stereo not given) | – | > 100 µM |
| CC(=O)OC1OC([C@@H]2c3cccc(O)c3C(=O)c3c(O)cc(C)cc32)C(O)C(O)C1O (stereo not given in full) | < 0.0153 | 0.0377 µM |
| Nc1nc(-n2c(-c3ccccc3)nc3c(Br)cc(Br)cc3c2=O)nnc1-c1cccc(Cl)c1Cl | 4.22 | 18.3 µM |
| C[N+](C)(C)CC(=O)N/N=C(/CC(=O)CC(C1=C(O)c2ccccc2OC1)c1ccccc1)C(=O)Nc1cccc(Cl)c1 (stereo not given) | – | > 100 µM |
| COC(=O)/C=C1\S/C(=N\NC(=O)c2cc3ccc2/C=C\c2ccc(cc2)/C=C\3)N(c2ccccc2)C1=O | 2.63 | 7.46 µM |
| COC([CH2][Hg][n]1cnc2c1c(=O)n(C)c(=O)n2C)CN1C(=O)c2ccccc2S1(=O)=O (stereo not given) | > 100 | > 100 µM |
| COc1ccc(CC2c3cc4c(cc3CCN2C)OCO4)c(C=O)c1OC (stereo not given) | – | > 100 µM |
| CN1CCCCC1CCN1c2ccccc2Sc2ccc(Cl)cc21 (stereo not given) | 2.09 | 6.32 µM |
| C=C(C)C(OC)C(O)CC1(C)CC(O)CC(C)(C2CCC3OC(C4(C)CCC(Br)C(C)(C)O4)CCC3(C)O2)O1 (stereo not given) | 20.3 | 43.8 µM |
| Cc1cc(-c2nc(C(=O)Nc3cc4oc(N5CCOCC5)nc4nc3N3CC[C@@H](O)C3)co2)ccn1 | 45.6 | > 100 µM |
| COc1cc2c(cc1OCCCCN1CCN(CC(=O)Nc3ccc(Cl)cc3C(=O)c3ccccc3Cl)CC1)N=CC1CCCN1C2=O (stereo not given) | 0.251 | 0.759 µM |
| Cc1ccc(Cl)c2c(N=Nc3ccccc3[N+](=O)[O-])c(O)[nH]c12 | – | > 100 µM |
| FC(F)(F)c1cccc(Nc2nc(-c3ccccc3)nc3ncccc23)c1 | 4.88 | 41.2 µM |
| OC1CSSC1Cn1cnc2c(Nc3ccc(OCc4cccc(F)c4)c(Cl)c3)ncnc21 (stereo not given) | 0.986 | 4.53 µM |
| C=CCOc1ccc2c(C)cc(=O)oc2c1C | – | > 100 µM |
| Nc1c(C(=O)c2cccc(CCS(N)(=O)=O)c2)cnn1-c1ccc(F)cc1 | > 25 | > 25 µM |
| C=CCO[C@H]1CO[C@H]2[C@@H]1OC[C@@H]2Oc1ccc(Nc2ccnc(Nc3ccc(O[C@H]4CO[C@H]5[C@@H]4OC[C@@H]5OCC=C)c(Cl)c3)n2)cc1Cl | 1.69 | 3.23 µM |
| OCc1cc2ccccc2c2c3c(ccc12)OCO3 | 29.1 | 175 µM |
| COc1cnc2c(c1)C(=O)c1c-2n(CCCN2CCOCC2)c(=O)c2cc(F)ccc12 | 1.6 | > 100 µM |
| C[C@@H](Oc1cc(-n2cnc3ccc(CN4CCN(C)CC4)cc32)sc1C(N)=O)c1ccccc1C(F)(F)F | – | 2.65 µM and > 2.79 µM |

| SMILES | GI50 [µM] | TGI |
| --- | --- | --- |
| CCOC1Oc2ccccc2C(=O)/C1=C/Nc1ccc(C(C)=O)cc1 (stereo not given) | 20 | 47.8 µM |
| O=C(CCNC12CC3CC(CC(C3)C1)C2)c1ccccc1 | – | 69.8 µM |
| COc1cccc(-c2cc(-c3cccc(NS(C)(=O)=O)c3)nc(N)c2C#N)c1O | 0.815 | > 100 µM |
| CCN1CCN(Cc2ccc(NC(=O)c3cccc(C#Cc4cccc5[nH]nc(N)c45)c3)cc2C(F)(F)F)CC1 | 0.12 | 0.573 µM |
| Cc1ccsc1C(=S)Nc1ccc(Cl)c(/C=N/OC(C)(C)C)c1 | – | 69.9 µM |
| CC(C)=CCC\C(C)=C/C=C/C(C)=C\C=C\C(C)=C/C=C/C=C(C)\C=C\C=C(C)/C=C/C=C(/C)CCC=C(C)C | – | > 100 µM |
| NC(N)=NS(=O)(=O)c1ccc(Nc2c3ccccc3nc3c(C(=O)NCCO)cccc23)cc1 | 24.6 | – |
| COc1cccc(C2c3cc4c(cc3OC(C)(N3CCCC3)C2C)OCO4)c1O (stereo not given) | – | 18.4 µM |
| COC(=O)CC[N+]1=CCC(c2ccccc2)(c2ccccc2)O1 | – | > 100 µM |
| CCN(CC)N=Nc1c(C(N)=O)n[nH]c1C | – | > 100 µM |
| O=C1NC(=NCCc2cccc(F)c2)S/C1=C\c1ccc2ncccc2c1 | > 25 | > 25 µM |
| COc1cc(/C=N\NC(=O)CN2CCN(c3cc4c(cc3F)c(=O)c(C(=O)N/N=C/c3cc(OC)c(OC)c(OC)c3)cn4C3CC3)CC2)cc(OC)c1OC | 0.25 | 0.781 µM |
| OCCN(CCO)c1ncnc2c1ncn2Cc1ccc(CCl)cc1 | 18 | 35.5 µM |
| Cc1ccc2c(C)c3c(ccc4ccccc43)c[n+]2c1 | 13.5 | 46.2 µM |
| Cc1ccc(CN2CCC(C(=O)Nc3ccc(-c4cc5ccccc5[nH]4)cc3)CC2)o1 | > 100 | > 100 µM |
| C=CC(=O)Nc1cc(Nc2ncc(C(=O)OC(C)C)c(-c3cn(C)c4ccccc34)n2)c(OC)cc1N(C)CCN(C)C | 2.66 | 8.26 µM |
| O=C(Nc1ccc(F)cc1)Nc1ccc(Cl)c([N+](=O)[O-])c1 | 2.54 | 6.46 µM |
| CCOC(=O)Cn1c(C(F)(F)F)nc2nc(Cl)c(Cl)nc21 | – | > 100 µM |
| CC1CCc2nc[nH]c(=O)c21 (stereo not given) | > 100 | > 100 µM |
| Fc1[nH]nc2ccc([C@@H]3Nc4ccc5[nH]ncc5c4[C@H]4C5CCC(C5)[C@@H]34)cc12 (stereo not given in full) | 1.97 | 17.5 µM |
| COC1/C=C/OC2(C)Oc3c(C)c(O)c4c(O)c(c(/C=N/Nc5ccc([N+](=O)[O-])cc5[N+](=O)[O-])c(O)c4c3C2=O)NC(=O)C(C)=C/C=C/C(C)C(O)C(C)C(O)C(C)C(OC(C)=O)C1C (stereo not given) | 1.32 | 4.01 µM |
